This passage reports IC50 results from patent US20250163043A1 (TRANSTHERA SCIENCES (NANJING), INC., priority 2021, published 2025).

One assay addresses CDK3/CycE1 (Homo sapiens, UniProt Q00526). Nature of the assay: ADP-Glo kinase assay on CDK enzymatic activity, CDK3/CycE1. In kind it is biochemical. To be noted: 10 concentrations from 10 μM, 4-fold, 60 min room temperature. In short, it runs like this:
(§1)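 Ten-point, 4-fold dilution series from 10 μM final was preincubated 10 min with kinase, then 60 min at room temperature with CDKtide substrate and ATP. ADP-Glo luminescence gave inhibition relative to 1 μM AZD4573 and 0.5% DMSO controls; IC50 from curve fitting.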

The next assay deals with CDK1/CycE1 (Homo sapiens, UniProt P06493). Description: ADP-Glo kinase assay on CDK enzymatic activity, CDK1/CycE1. The format is biochemical. To be noted: ADP-Glo; 10 concentrations from 10 μM, 4-fold; 60 min room temperature; read-out: CDK1/CycE1/nM (IC50). Put shortly:
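Compounds in 10-point 4-fold dilutions from 10 μM final, preincubated 10 min with kinase, then substrate/ATP added; 60 min reaction at room temperature. ADP-Glo luminescence read.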

Assay [1] concerns the target T1, CDK9/CycT1 (Homo sapiens, UniProt P50750). Description: ADP-Glo kinase assay on CDK enzymatic activity, CDK9/CycT1. The format is biochemical. Conditions: 10 concentrations from 10 μM, 4-fold, 60 min room temperature. Put shortly:
as §1

For a further assay, the target named is CDK2/CycA2 (Homo sapiens, UniProt P24941). Nature of the assay: ADP-Glo kinase assay on CDK enzymatic activity, CDK2/CycA2. The format is biochemical. To be noted: 10 concentrations from 10 μM, 4-fold, 60 min room temperature. Put shortly: as §1
For orientation: ADP-Glo first removes unused ATP, then detects ADP through luciferase.

In assay [2] the test system is NCI-H929 (human myeloma cells). Description: CCK-8 cell proliferation assay, NCI-H929. The format is cell-based. Conditions: 72 h incubation, 11 concentrations from 5000 nM, 3-fold. The method, then:
Test samples: the compounds of the present invention, having structures shown above.
RMPI 1640, Fetal Bovine Serum (FBS), a CCK-8 method cell proliferation assay kit, DMSO (dimethyl sulfoxide), a 96-well cell culture plate, an Iscov'Modified Dulbecco's culture medium (IMDM), a multifunctional microplate reader,
MV-4-11 (human myelomonocytic leukemia cells) and NCI-H929 (human myeloma cells).
The compounds were dissolved in DMSO and diluted 3-fold in the 96-well plate to obtain stock solutions with 11 concentration gradients. Each cell was inoculated into a 96-well plate, and the diluted compound stock solution was added to the 96-well plate to obtain a series of 11 concentration gradients of compound solutions with final concentrations of 5000 nM starting and 3-fold gradient decreasing, wherein the final DMSO content was […]. There was a medium containing 1‰ DMSO in the negative control well. The treated cells were incubated at 37° C. with 5% CO2 and 95% humidity, wherein MV-4-11 were incubated for 24 h and NCI-H929 for 72 h. After incubation was completed, each well was added with 10 μL of CCK-8 reagent, incubated for 1-3 h at room temperature and placed in the microplate reader, and the absorbance was read at 450 nm.
The inhibition rate was calculated according to the following formula: […]
ODcmpd: compound absorbance; ODpositive: average value of the absorbance of positive control without compound; ODvehicle: average value of the absorbance of solvent vehicle control.
IC50 values were fitted using GraphPad 7.0 based on inhibition rates of compounds at different concentrations.
Background: Tetrazolium assays rely on reduction of a dye to a coloured formazan, in cell work by metabolically active cells.

The next assay concerns the target CDK5/p25NCK (Homo sapiens, UniProt Q00535). Nature of the assay: ADP-Glo kinase assay on CDK enzymatic activity, CDK5/p25NCK. The format is biochemical. Conditions: 10 concentrations from 10 μM, 4-fold, 60 min room temperature. Put shortly: as §1
The target of assay [3] is T1, CDK9/CycT1. Nature of the assay: Off-chip mobility shift assay (MSA) on CDK9/CycT1. The format is biochemical. On the set-up: Full-length human CDK9 [1-372(end) amino acids of; host or cells: baculovirus expression system. Conditions: 4-point concentration (0.0016, 0.008, 0.04, 0.2 uM), ATP 10 μM, reaction time 5 hours, read-out: CDK9/CycT1/nM (inhibitory activity). How it is done: Prepare 100× concentrated Test compound stock solutions with DMSO. Then, Dilute the solution 25 times with Assay Buffer (20 mM HEPES, 0.01% Triton X-100, 2 mM DTT, pH7.5) to prepare 4× test compound solutions.
Test compounds were evaluated at 4-point concentration (0.0016, 0.008, 0.04, 0.2 uM). • 1) Mix 5 μL of 4× test compound solution with 5 μL of 4× substrate/ATP/Metal solution and 10 μL of 2× kinase solution in 384-well polypropylene plate. Incubate for 5 hours at room temperature. • 2) Add 70 μL of Termination Buffer (QuickScout Screening Assist MSA; Carna Biosciences) to stop the reaction. • 3) Separate and detect unphosphorylated/phosphorylated substrate peptides in the reactant using LabChip system (Perkin Elmer). • 4) Evaluate kinase reaction from product ratio (P/(P+S)) calculated by peak height of unphosphorylated substrate(S) and peak height of phosphorylated substrate (P).

T1 sequence (P50750 whole entry): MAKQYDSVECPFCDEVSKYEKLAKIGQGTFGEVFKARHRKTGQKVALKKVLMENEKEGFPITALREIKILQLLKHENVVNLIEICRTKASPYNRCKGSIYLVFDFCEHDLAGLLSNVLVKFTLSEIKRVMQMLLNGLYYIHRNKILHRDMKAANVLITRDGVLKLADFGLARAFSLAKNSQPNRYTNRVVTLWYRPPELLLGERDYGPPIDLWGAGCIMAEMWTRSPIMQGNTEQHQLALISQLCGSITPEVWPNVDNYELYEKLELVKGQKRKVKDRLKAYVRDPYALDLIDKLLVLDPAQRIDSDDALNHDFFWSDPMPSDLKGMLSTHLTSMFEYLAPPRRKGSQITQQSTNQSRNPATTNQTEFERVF
T1 sequence (O60563 whole entry partner): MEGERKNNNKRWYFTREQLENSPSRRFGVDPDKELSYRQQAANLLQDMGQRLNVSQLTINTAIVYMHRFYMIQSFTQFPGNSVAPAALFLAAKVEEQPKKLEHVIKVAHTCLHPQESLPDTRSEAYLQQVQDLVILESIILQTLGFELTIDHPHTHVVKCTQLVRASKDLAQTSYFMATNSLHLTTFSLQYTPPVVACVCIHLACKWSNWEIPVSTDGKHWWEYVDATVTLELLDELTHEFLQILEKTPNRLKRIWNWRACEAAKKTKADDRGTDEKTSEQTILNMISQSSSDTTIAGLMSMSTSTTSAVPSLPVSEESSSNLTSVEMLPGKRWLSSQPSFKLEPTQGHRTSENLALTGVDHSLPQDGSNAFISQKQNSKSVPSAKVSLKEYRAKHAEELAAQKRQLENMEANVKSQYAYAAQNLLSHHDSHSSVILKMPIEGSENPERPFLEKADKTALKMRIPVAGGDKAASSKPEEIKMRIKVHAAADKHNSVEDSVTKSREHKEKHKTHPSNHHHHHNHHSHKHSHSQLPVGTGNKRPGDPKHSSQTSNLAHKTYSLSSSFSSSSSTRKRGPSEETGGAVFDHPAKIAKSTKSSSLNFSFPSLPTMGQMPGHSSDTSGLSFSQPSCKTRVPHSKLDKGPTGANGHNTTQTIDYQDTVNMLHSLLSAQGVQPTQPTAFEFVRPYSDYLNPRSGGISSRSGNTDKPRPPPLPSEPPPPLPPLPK
CDK5/p25NCK, sequence (Q00535 whole entry, species assumed): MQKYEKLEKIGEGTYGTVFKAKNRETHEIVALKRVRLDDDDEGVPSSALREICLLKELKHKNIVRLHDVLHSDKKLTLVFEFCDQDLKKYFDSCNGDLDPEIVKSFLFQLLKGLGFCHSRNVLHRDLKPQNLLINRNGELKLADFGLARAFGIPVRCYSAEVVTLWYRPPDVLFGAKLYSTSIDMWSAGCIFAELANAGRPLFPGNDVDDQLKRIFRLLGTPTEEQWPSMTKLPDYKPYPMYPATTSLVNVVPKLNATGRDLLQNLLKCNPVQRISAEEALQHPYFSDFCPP
CDK5/p25NCK, sequence (Q15078 99-307 partner limits assumed, species assumed): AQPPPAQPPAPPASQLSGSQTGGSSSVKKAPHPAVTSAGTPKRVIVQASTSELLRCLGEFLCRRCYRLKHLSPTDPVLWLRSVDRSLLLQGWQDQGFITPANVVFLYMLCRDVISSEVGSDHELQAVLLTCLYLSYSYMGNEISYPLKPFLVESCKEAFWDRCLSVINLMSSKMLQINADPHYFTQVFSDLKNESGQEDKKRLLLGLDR
CDK3/CycE1, sequence (Q00526 whole entry, species assumed): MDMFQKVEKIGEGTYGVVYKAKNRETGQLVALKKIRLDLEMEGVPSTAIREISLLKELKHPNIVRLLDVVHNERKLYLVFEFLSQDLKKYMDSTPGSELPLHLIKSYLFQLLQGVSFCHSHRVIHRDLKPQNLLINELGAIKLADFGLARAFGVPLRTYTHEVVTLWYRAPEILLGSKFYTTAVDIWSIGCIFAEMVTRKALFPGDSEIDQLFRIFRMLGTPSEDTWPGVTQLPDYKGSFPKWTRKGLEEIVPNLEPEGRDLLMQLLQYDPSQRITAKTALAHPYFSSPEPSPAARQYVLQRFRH
CDK3/CycE1, sequence (P24864 whole entry partner, species assumed): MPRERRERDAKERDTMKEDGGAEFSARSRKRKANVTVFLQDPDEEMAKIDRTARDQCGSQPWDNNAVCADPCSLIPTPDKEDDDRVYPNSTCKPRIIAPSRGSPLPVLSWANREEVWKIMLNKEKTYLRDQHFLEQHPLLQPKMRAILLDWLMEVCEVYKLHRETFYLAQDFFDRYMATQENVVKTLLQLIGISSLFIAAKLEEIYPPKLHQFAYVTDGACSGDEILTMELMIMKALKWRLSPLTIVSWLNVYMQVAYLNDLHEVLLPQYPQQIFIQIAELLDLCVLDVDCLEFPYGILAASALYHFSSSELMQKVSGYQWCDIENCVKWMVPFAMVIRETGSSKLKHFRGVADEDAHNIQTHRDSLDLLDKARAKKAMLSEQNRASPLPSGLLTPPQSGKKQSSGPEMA
CDK1/CycE1, sequence (P06493 whole entry, species assumed): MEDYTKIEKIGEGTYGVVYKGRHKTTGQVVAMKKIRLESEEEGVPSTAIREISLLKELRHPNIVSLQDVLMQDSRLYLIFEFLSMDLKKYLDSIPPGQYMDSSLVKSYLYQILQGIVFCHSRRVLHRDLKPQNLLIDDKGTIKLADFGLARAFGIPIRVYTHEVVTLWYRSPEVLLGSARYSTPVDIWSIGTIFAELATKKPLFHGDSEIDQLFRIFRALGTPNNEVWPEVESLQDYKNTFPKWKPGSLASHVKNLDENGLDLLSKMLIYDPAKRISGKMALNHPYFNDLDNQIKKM
CDK1/CycE1, sequence (P24864 whole entry partner, species assumed): as the sequence (P24864 whole entry partner, species assumed) above

Consider `CC(C)Nc1nc(C#N)cc2cnc(N[C@H]3CC[C@H](N)C3)cc12` [Compound 28, 7-(((1S,3S)-3-aminocyclopentyl)amino)-1-(isopropylamino)-2,6-naphthyridine-3-carbonitrile], for which the IC50 on CDK3/CycE1 was determined as 97 nM; at CDK1/CycE1, 220 nM; on CDK9/CycT1 [1] it was 3 nM; at CDK2/CycA2, 50 nM; in assay [2], 25 nM; against CDK5/p25NCK it was 96 nM.

With `CC(C)Nc1nc(C#N)cc2cnc(N[C@@H]3CC[C@@H](N)C3)cc12` [Compound 30, 7-(((1R,3R)-3-aminocyclopentyl)amino)-1-(isopropylamino)-2,6-naphthyridine-3-carbonitrile], the IC50 against CDK3/CycE1 was determined as 95 nM; on CDK9/CycT1 [1], 2 nM; against CDK2/CycA2, 15 nM; in assay [2], 14 nM; at CDK5/p25NCK, 31 nM.

For `CC(C)Nc1nc(C#N)cc2cnc(N[C@H]3CC[C@H](O)C3)cc12` [Compound 33, 7-(((1S,3S)-3-hydroxycyclopentyl)amino)-1-(isopropylamino)-2,6-naphthyridine-3-carbonitrile], the IC50 on CDK3/CycE1 is 9 nM; at CDK9/CycT1 [1] it was 1 nM; against CDK2/CycA2, 3 nM; in assay [2], 8 nM; against CDK5/p25NCK it was 3 nM.

For the molecule `CC(C)Nc1nc(C#N)cc2cnc(N[C@H]3CC[C@H](N)C3)nc12` [Compound 45, 2-(((1S,3S)-3-aminocyclopentyl)amino)-8-(isopropylamino)pyrido[3,4-d]pyrimidine-6-carbonitrile], the IC50 was determined as 85 nM on CDK3/CycE1; 114 nM at CDK1/CycE1; 2 nM against CDK9/CycT1 [1]; 47 nM against CDK2/CycA2; 22 nM in assay [2]; 153 nM at CDK5/p25NCK.

`CC(C)Nc1nc(C(F)F)cc2cnc(N[C@H]3CC[C@H](N)C3)cc12` [Compound 52, N^7-((1S,3S)-3-aminocyclopentyl)-3-(difluoromethyl)-N^1-isopropyl-2,6-naphthyridine-1,7-diamine]: the IC50 on CDK3/CycE1 was found to be 23 nM; on CDK9/CycT1 [1], 1 nM; against CDK2/CycA2 it was 12 nM; in assay [2] it was 9 nM; on CDK5/p25NCK, 16 nM.

Regarding `CC(C)Nc1nc(C#N)cc2cnc(N[C@H]3CCCNC3)nc12` [Compound 55, (S)-8-(isopropylamino)-2-(piperidin-3-ylamino)pyrido[3,4-d]pyrimidine-6-carbonitrile], the IC50 at CDK3/CycE1 stood at 24 nM; on CDK1/CycE1, 43 nM; at CDK9/CycT1 [1], 1 nM; at CDK2/CycA2, 60 nM; in assay [2], 26.1 nM; against CDK5/p25NCK, 56 nM.

Consider `CC(C)Nc1nc(C#N)cc2cnc(N[C@H]3CC[C@H](O)CC3)nc12` [Compound 94, 2-(((1r,4r)-4-hydroxycyclohexyl)amino)-8-(isopropylamino)pyrido[3,4-d]pyrimidine-6-carbonitrile], for which the IC50 on CDK9/CycT1 [3] amounted to 4 nM.

`CC(C)Nc1nc(C2COC2)cc2cnc(N[C@H]3CC[C@H](O)CC3)nc12` [Compound 95, (1r,4r)-4-((8-(isopropylamino)-6-(oxetan-3-yl)pyrido[3,4-d]pyrimidin-2-yl)amino)cyclohexan-1-ol]: on CDK9/CycT1 [3], the IC50 came to 34 nM.

For `CC(C)Nc1nc(CO)cc2cnc(N[C@H]3CC[C@H](O)CC3)nc12` [Compound 97, (1r,4r)-4-((6-(hydroxymethyl)-8-(isopropylamino)pyrido[3,4-d]pyrimidin-2-yl)amino)cyclohexan-1-ol], the IC50 at CDK9/CycT1 [3] amounted to 17 nM.

On to `CC(=O)N[C@@H]1CCC[C@H](C(=O)Nc2cc3c(NC(C)C)nc([C@@H](C)O)cc3cn2)C1` [Compound 98, (1S,3R)-3-acetamido-N-(7-((R)-1-hydroxyethyl)-5-(isopropylamino)-2,6-naphthyridin-3-yl)cyclohexane-1-carboxamide], for which the IC50 on CDK9/CycT1 [3] came out at 28 nM.

As for `C=Cc1cc2cnc(NC(=O)[C@H]3CCC[C@@H](NC(C)=O)C3)cc2c(NC(C)C)n1` [Compound 99, (1S,3R)-3-acetamido-N-(5-(isopropylamino)-7-vinyl-2,6-naphthyridin-3-yl)cyclohexane-1-carboxamide], the IC50 on CDK9/CycT1 [3] was 29 nM.

As for `CC(C)Nc1nc([C@@H](C)O)cc2cnc(N[C@H]3CC[C@H](NC4COC4)CC3)cc12` [Compound 101, (R)-1-(1-(isopropylamino)-7-(((1r,4R)-4-(oxetan-3-ylamino)cyclohexyl)amino)-2,6-naphthyridin-3-yl)ethan-1-ol], the IC50 on CDK9/CycT1 [3] was determined as 15 nM.

Take `C[C@@H](O)c1nc(NC(C)(C)C)c2nc(N[C@H]3CC[C@H](O)CC3)ncc2c1Cl` [Compound 102, (1R,4r)-4-((8-(tert-butylamino)-5-chloro-6-((R)-1-hydroxyethyl)pyrido[3,4-d]pyrimidin-2-yl)amino)cyclohexan-1-ol]: the IC50 on CDK9/CycT1 [3] was determined as 10 nM.
